For two compounds, IC50 and HIV strains/subtypes neutralized results are on record in US20190328900A1, “ANTIBODY-DRUG CONJUGATES AND THERAPEUTIC METHODS USING THE SAME” (priority 2016, published 2019).

The test system of assay [1] is pseudotyped virus (NL4-3 provirus with various HIV gp160 envelope clones). Kind of assay: Pseudotyped virus assay (PSV), luciferase reporter, U373 cells expressing human CD4 and CXCR4 or CCR5. The assay is classed as cell-based. An excerpt: A pseudotyped virus assay (PSV) was used to assess the potency of various HIV entry inhibitors. Replication defective virus was produced by co-transfection of a plasmid containing an NL4-3 provirus [containing a mutation in the envelope open reading frame (ORF) and a luciferase reporter gene replacing the nef ORF] and a CMV-promoter expression plasmid containing an ORF for various HIV gp160 envelope clones. The harvested virus was stored at −80C in small aliquots and the titer of the virus measured to produce a robust signal for antiviral assays.
The PSV assay was performed by using U373 cells stably transformed to express human CD4, the primary receptor for HIV entry and either human CXCR4 or human CCR5 which are the co-receptors required for HIV entry as target cells for infection. Molecules of interest (including, but not limited to small molecule inhibitors of HIV, neutralizing antibodies of HIV, antibody-drug conjugate inhibitors of HIV, peptide inhibitors of HIV, and various controls) were diluted into tissue culture media and diluted via serial dilution to create a dose range of concentrations. This dose-range was applied to U373 cells and the pre-made pseudotyped virus added. The amount of luciferase signal produced after 3 days of culture was used to reflect the level of pseudotyped virus infection.
(A reporter such as luciferase makes a cellular process visible.)

In another assay the test system is HIV strains/subtypes. The note with it: cited from earlier work.

Take `O=C1Nc2ccc(Cl)cc2[C@@](C#CC2CC2)(C(F)(F)F)O1` [EFV, Efavirenz]: the IC50 came to 1.9 nM in assay [1] (Human immunodeficiency virus 1, NL43, Table 14, first IC50 column (no further heading)); 1.53 nM in assay [1] (Human immunodeficiency virus 1, NL43, Table 14, second IC50 column (no further heading)); 1.6 nM in assay [1] (Human immunodeficiency virus 1, NL43, Table 14, third IC50 column (no further heading)).

On to “VRC01: broadly neutralizing anti-HIV antibody (IgG1) binding gp120, expressed in CHO cells; SEQ ID NO:9-13”, for which, in the assay with HIV strains/subtypes, the HIV strains/subtypes neutralized was 90%.

One may read the IC50 as the concentration needed to halve the response being measured. A higher IC50 goes with a need for much substance.
